Tests used:
[1] = test system: H1 human embryonic stem cells; assay: Compound 34 with growth factor combinations including GDF-8, no activin A (Example 7, Table 6); type: cell-based
Procedure: Clusters of H1 human embryonic stem cells were grown on reduced growth factor […]™ (Invitrogen; Cat #356231)-coated tissue culture plastic. Cells were passaged using collagenase (Invitrogen; Cat #17104-019) treatment and gentle scraping, washed to remove residual enzyme, and plated with even dispersal at a ratio of 1:1 (surface area) on reduced growth factor […]™-coated 96-well black plates (Packard ViewPlates; PerkinElmer; Cat #6005182) using volumes of 100 μl/well. Cells were allowed to attach as clusters and then recover log phase growth over a 1 to 3 day period, feeding daily with MEF conditioned medium supplemented with 8 ng/ml bFGF (R&D Systems; Cat #233-FB). Plates were maintained at 37° C., 5% CO2 in a humidified box throughout the duration of assay.
Stocks of growth factors purchased from R&D Systems were EGF (Cat #236-EG), FGF4 (Cat #235-F4), PDGF-A (Cat #221-AA), PDGF-D (Cat #1159-SB), PDGF-A/B (Cat #222-AB), VEGF (Cat #293-VE), and GDF-8 (Cat #788-G8). Muscimol was purchased from Tocris (Cat #0289). All growth factors were solubilized in PBS with 0.1% BSA (Sigma; Cat #A7888) and stored frozen at −80° C. Muscimol was solubilized in 100% DMSO (Sigma; Cat #D2650) and stored frozen at −80° C. Cyclic aniline-pyridinotriazine compounds were available as 5 mM stocks in 96-well plate format, solubilized in 100% DMSO and stored at −80° C. Compound 34 was further diluted to an intermediate concentration of 0.2 mM in 50 mM HEPES (Invitrogen; Cat #15630-080), 20% DMSO and stored at 4° C. All growth factors and inhibitors were prepared in a deep well, 96-well polypropylene plate, diluted to 5× intermediate stocks in DMEM:F12 base medium at the beginning of assay and stored at 4° C.
A secondary screening assay was conducted, testing in triplicate and feeding on alternate days over the four-day assay timeframe. Assays were initiated by aspirating culture medium from each well followed by three washes in PBS to remove residual growth factors and serum. […] All remaining growth factors were tested at a final assay concentration of 50 ng/ml (EGF, FGF4, PDGF-A, PDGF-A/B, VEGF) with the exception of GDF-8 tested at 25 ng/ml. Final assay concentration of muscimol was 20 μM. […]
On day 3, wells were aspirated and fed with 80 μl DMEM:F12 base medium supplemented with 2.5% FCS (HyClone) and 3.125 μM Compound 34 plus 20 μl 5× stock of growth factors or small molecules per well to yield a final concentration of 2% FCS and 2.5 μM Compound 34 (omitting Wnt3a) and as denoted on day one for all remaining growth factors or small molecules. Positive control wells (100 μl/well) contained the same base medium supplemented with 2% FCS and 100 ng/ml activin A, omitting Wnt3a. Negative control wells (100 μl/well) contained the same base medium with 2% FCS, omitting both activin A and Wnt3a.
At the conclusion of four-days of culture, assay plates were washed twice with PBS, fixed with 4% paraformaldehyde (Alexis Biochemical; Cat ALX-350-011) at room temperature for 20 minutes, then washed three times with PBS and permeabilized with 0.5% Triton X-100 (Sigma; Cat #T8760-2) for 20 minutes at room temperature. Cells were washed again three times with PBS and blocked with 4% chicken serum (Invitrogen; Cat #16110082) in PBS for 30 minutes at room temperature. Primary antibody (goat anti-human SOX17; R&D Systems; cat #AF1924) was diluted 1:100 in 4% chicken serum and added to each well for one hour at room temperature. Alexa Fluor 488 conjugated secondary antibody (chicken anti-goat IgG; Molecular Probes; Cat #AZ1467) was diluted 1:200 in PBS and added to each sample well after washing three times with PBS. To counterstain nuclei, 4 μg/ml Hoechst 33342 (Invitrogen; Cat #H3570) was added for ten minutes at room temperature. Plates were washed once with PBS and left in 100 μl/well PBS for imaging. […]

[2] = test system: H1 human embryonic stem cells; assay: Definitive endoderm formation with TGF superfamily members, SOX17 and cell number (Example 14); type: cell-based; conditions: growth factor with 20 ng/ml Wnt3a, three days
Procedure: Clusters were centrifuged at low speed to collect a cell pellet and remove residual dispase. […] All human embryonic stem cell lines were maintained at passage numbers less than 50 and routinely evaluated for normal karyotype and absence of mycoplasma.
Cells were washed again three times with PBS and blocked with 4% chicken serum (Invitrogen; Cat #16110082) in PBS for 30 minutes at room temperature. […] Plates were washed once with PBS and left in 100 μl/well PBS for imaging.

[3] = no AA (with Wnt3a), EGF + FGF4 + PDGF-A + VEGF + PDGF-D + Muscimol + GDF8
[4] = no AA (with Wnt3a), GDF8 + PDGF-D
[5] = no AA (with Wnt3a), GDF8 + PDGF-D + VEGF
[6] = no AA (with Wnt3a), GDF8 + PDGF-D + VEGF + Muscimol
[7] = no AA (with Wnt3a), GDF8 + VEGF + Muscimol
[8] = no AA (with Wnt3a), PDGF-D + Muscimol
[9] = no AA (with Wnt3a), PDGF-D + Muscimol + VEGF
[10] = no AA (with Wnt3a), PDGF-D + VEGF
[11] = no AA (with Wnt3a), VEGF + Muscimol
[12] = no AA, no Wnt3a, EGF + FGF4 + PDGF-A + VEGF + PDGF-D + Muscimol + GDF8

## O=C1CCN2CCN(CC2)Cc2cc(Cl)cc(c2)Nc2ncnc(n2)-c2cncc(c2)CCCN1 [Compound 34, 5-Chloro-1,8,10,12,16,22,26,32-octaazapentacyclo[24.2.2.1˜3.7˜0.1˜9,13˜0.1˜14.18˜]tritriaconta-3(33), 4,6,9(32), 10,12,14(31), 15,17-nonaen-23-one]
[1]; 2.5 μM Compound 34 with GDF-8 (25 ng/ml) and Wnt3a, no activin A
  SOX17 expression (% of control): 88 % of control
[1]; no AA (with Wnt3a), EGF
  Cell Number, % of positive control: 85.53%
  Cell Number, Average Total Cell Number: 6145
  Sox17 Expression, % of positive control: 19.18%
  Sox17 Expression, Average Total Intensity: 1.5E+07
[1]; [3]
  Cell Number, % of positive control: 83.90%
  Cell Number, Average Total Cell Number: 6028
  Sox17 Expression, % of positive control: 87.44%
  Sox17 Expression, Average Total Intensity: 7.0E+07
[1]; no AA (with Wnt3a), FGF4
  Cell Number, % of positive control: 74.09%
  Cell Number, Average Total Cell Number: 5323
  Sox17 Expression, % of positive control: 33.75%
  Sox17 Expression, Average Total Intensity: 2.7E+07
[1]; no AA (with Wnt3a), GDF8
  Cell Number, % of positive control: 88.44%
  Cell Number, Average Total Cell Number: 6354
  Sox17 Expression, % of positive control: 88.59%
  Sox17 Expression, Average Total Intensity: 7.1E+07
[1]; [4]
  Cell Number, % of positive control: 95.88%
  Cell Number, Average Total Cell Number: 6889
  Sox17 Expression, % of positive control: 72.59%
  Sox17 Expression, Average Total Intensity: 5.8E+07
[1]; [5]
  Cell Number, % of positive control: 77.74%
  Cell Number, Average Total Cell Number: 5585
  Sox17 Expression, % of positive control: 81.75%
  Sox17 Expression, Average Total Intensity: 6.6E+07
[1]; [6]
  Cell Number, % of positive control: 131.60%
  Cell Number, Average Total Cell Number: 9455
  Sox17 Expression, % of positive control: 119.24%
  Sox17 Expression, Average Total Intensity: 9.6E+07
[1]; [7]
  Cell Number, % of positive control: 84.67%
  Cell Number, Average Total Cell Number: 6083
  Sox17 Expression, % of positive control: 69.62%
  Sox17 Expression, Average Total Intensity: 5.6E+07
[1]; no AA (with Wnt3a), Muscimol
  Cell Number, % of positive control: 101.41%
  Cell Number, Average Total Cell Number: 7286
  Sox17 Expression, % of positive control: 38.38%
  Sox17 Expression, Average Total Intensity: 3.1E+07
[1]; no AA (with Wnt3a), PDGF-A
  Cell Number, % of positive control: 58.11%
  Cell Number, Average Total Cell Number: 4175
  Sox17 Expression, % of positive control: 13.43%
  Sox17 Expression, Average Total Intensity: 1.1E+07
[1]; no AA (with Wnt3a), PDGF-D
  Cell Number, % of positive control: 69.84%
  Cell Number, Average Total Cell Number: 5017
  Sox17 Expression, % of positive control: 18.76%
  Sox17 Expression, Average Total Intensity: 1.5E+07
[1]; [8]
  Cell Number, % of positive control: 48.57%
  Cell Number, Average Total Cell Number: 3490
  Sox17 Expression, % of positive control: 8.02%
  Sox17 Expression, Average Total Intensity: 6.5E+06
[1]; [9]
  Cell Number, % of positive control: 29.68%
  Cell Number, Average Total Cell Number: 2133
  Sox17 Expression, % of positive control: 3.32%
  Sox17 Expression, Average Total Intensity: 2.7E+06
[1]; [10]
  Cell Number, % of positive control: 70.01%
  Cell Number, Average Total Cell Number: 5030
  Sox17 Expression, % of positive control: 14.58%
  Sox17 Expression, Average Total Intensity: 1.2E+07
[1]; no AA (with Wnt3a), VEGF
  Cell Number, % of positive control: 65.60%
  Cell Number, Average Total Cell Number: 4713
  Sox17 Expression, % of positive control: 12.49%
  Sox17 Expression, Average Total Intensity: 1.0E+07
[1]; [11]
  Cell Number, % of positive control: 10.81%
  Cell Number, Average Total Cell Number: 776
  Sox17 Expression, % of positive control: 1.56%
  Sox17 Expression, Average Total Intensity: 1.3E+06
[1]; no AA (with Wnt3a), none
  Cell Number, % of positive control: 64.18%
  Cell Number, Average Total Cell Number: 4611
  Sox17 Expression, % of positive control: 17.21%
  Sox17 Expression, Average Total Intensity: 1.4E+07
[1]; [12]
  Cell Number, % of positive control: 66.21%
  Cell Number, Average Total Cell Number: 4757
  Sox17 Expression, % of positive control: 48.77%
  Sox17 Expression, Average Total Intensity: 3.9E+07

## Activin A: recombinant human activin A (PeproTech), TGF-beta family member
[2]
  SOX17 expression in combination with Wnt3a: robust expression of SOX17

## GDF-8: growth factor GDF-8, also known as myostatin, member of the TGF-β family
[1]; GDF-8 25 ng/ml in any combination with Compound 34
  SOX17 expression: substantial increase in SOX17 expression
[2]
  SOX17 expression in combination with Wnt3a: significant induction of SOX17 expression

From patent publication US9593305B2, “Differentiation of pluripotent stem cells” (Janssen Biotech, Inc., priority 2008, dated 2017)
